Data as given in patent US8309718B2, “4-pyrazolyl-N-arylpyrimidin-2-amines and 4-pyrazolyl-N-heteroarylpyrimidin-2-amines as janus kinase inhibitors” (Incyte Corporation, priority 2007, dated 2012).

What follows are molecules tested against T1, human JAK2 (Homo sapiens, UniProt O60674) (assay: In vitro JAK kinase assay (HTRF, phosphorylation of biotinylated peptide)). Conditions: catalytic domain a.a. 828-1132, 30 μM ATP, 500 nM peptide, room temperature 1 hr; read-out: JAK-2 IC50.
T1 construct: JAK2 (a.a. 828-1132); His tag (N); made in house; host or cells: insect cells (baculovirus)
Type: biochemical
Summary of the method: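 His-tagged human JAK2 catalytic domain (a.a. 828-1132), baculovirus/insect-cell expressed; phosphorylation of 500 nM biotinylated peptide at 30 μM ATP in 50 mM Tris pH 7.8, 100 mM NaCl, 5 mM DTT, 0.01% BSA. 1 h at room temperature, EDTA stop, HTRF read (Eu-Py20/SA-APC); IC50.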

T1 sequence (O60674 828-1132): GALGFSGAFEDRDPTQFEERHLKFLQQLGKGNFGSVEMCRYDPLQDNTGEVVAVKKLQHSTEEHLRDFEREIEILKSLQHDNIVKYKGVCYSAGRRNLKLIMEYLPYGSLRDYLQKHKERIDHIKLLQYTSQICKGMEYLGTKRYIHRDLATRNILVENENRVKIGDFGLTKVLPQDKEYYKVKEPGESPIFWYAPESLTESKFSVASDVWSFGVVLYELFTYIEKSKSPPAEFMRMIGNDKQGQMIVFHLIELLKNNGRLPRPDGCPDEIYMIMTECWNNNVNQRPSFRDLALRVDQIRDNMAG

Row | IC50 [µM] | Structure (SMILES)
1 | < 0.1 | COc1ccc(Nc2ncc(C)c(-c3cnn(C(CC#N)C4CCCC4)c3)n2)cc1 (racemic) [Example 75, 3-cyclopentyl-3-(4-(2-(4-methoxyphenylamino)-5-methylpyrimidin-4-yl)-1H-pyrazol-1-yl)propanenitrile]
2 | < 0.1 | CC(=O)Nc1ccc(Nc2ncc(C)c(-c3cnn(C(CC#N)C4CCCC4)c3)n2)cc1 (racemic) [Example 76, N-(4-(4-(1-(2-cyano-1-cyclopentylethyl)-1H-pyrazol-4-yl)-5-methylpyrimidin-2-ylamino)phenyl)acetamide]
3 | < 0.1 | Cc1cnc(Nc2ccc(C(=O)N(C)C)cc2)nc1-c1cnn(C(CC#N)C2CCCC2)c1 (racemic) [Example 77, 4-(4-(1-(2-cyano-1-cyclopentylethyl)-1H-pyrazol-4-yl)-5-methylpyrimidin-2-ylamino)-N,N-dimethylbenzamide]
4 | < 0.1 | CCN(CC)c1ccc(Nc2ncc(C)c(-c3cnn(C(CC#N)C4CCCC4)c3)n2)cc1 (racemic) [Example 79, 3-cyclopentyl-3-(4-(2-(4-(diethylamino)phenylamino)-5-methylpyrimidin-4-yl)-1H-pyrazol-1-yl)propanenitrile]
5 | < 0.1 | Cc1cnc(Nc2ccc(C(=O)O)cc2)nc1-c1cnn(C(CC#N)C2CCCC2)c1 (racemic) [Example 81, 4-(4-(1-(2-cyano-1-cyclopentylethyl)-1H-pyrazol-4-yl)-5-methylpyrimidin-2-ylamino)benzoic acid]
6 | < 0.1 | Cc1cnc(Nc2ccc([N+](=O)[O-])cc2)nc1-c1cnn(C(CC#N)C2CCCC2)c1 (racemic) [Example 82, 3-cyclopentyl-3-(4-(5-methyl-2-(4-nitrophenylamino)pyrimidin-4-yl)-1H-pyrazol-1-yl)propanenitrile]
7 | < 0.1 | Cc1cnc(Nc2ccc(C(=O)NCCO)cc2)nc1-c1cnn(C(CC#N)C2CCCC2)c1 (racemic) [Example 83, 4-(4-(1-(2-cyano-1-cyclopentylethyl)-1H-pyrazol-4-yl)-5-methylpyrimidin-2-ylamino)-N-(2-hydroxyethyl)benzamide]
8 | < 0.1 | Cc1cnc(Nc2ccc(N)cc2)nc1-c1cnn(C(CC#N)C2CCCC2)c1 (racemic) [Example 85, 3-(4-(2-(4-aminophenylamino)-5-methylpyrimidin-4-yl)-1H-pyrazol-1-yl)-3-cyclopentylpropanenitrile]
9 | < 0.1 | CNC(=O)c1ccc(Nc2ncc(C)c(-c3cnn(C(CC#N)C4CCCC4)c3)n2)cc1 (racemic) [Example 86, 4-(4-(1-(2-cyano-1-cyclopentylethyl)-1H-pyrazol-4-yl)-5-methylpyrimidin-2-ylamino)-N-methylbenzamide]
10 | < 0.1 | Cc1cnc(Nc2ccc(NS(C)(=O)=O)cc2)nc1-c1cnn(C(CC#N)C2CCCC2)c1 (racemic) [Example 89, N-(4-(4-(1-(2-cyano-1-cyclopentylethyl)-1H-pyrazol-4-yl)-5-methylpyrimidin-2-ylamino)phenyl)methanesulfonamide]
11 | < 0.1 | COC(=O)Nc1ccc(Nc2ncc(C)c(-c3cnn(C(CC#N)C4CCCC4)c3)n2)cc1 (racemic) [Example 90, Methyl 4-(4-(1-(2-cyano-1-cyclopentylethyl)-1H-pyrazol-4-yl)-5-methylpyrimidin-2-ylamino)phenylcarbamate]

More lines, now with the values behind:

Row | Structure (SMILES) | IC50 [µM]
12 | Cc1cnc(Nc2ccc(N3CCNCC3)cc2)nc1-c1cnn(C(CC#N)C2CCCC2)c1 (racemic) [Example 78, 3-cyclopentyl-3-(4-(5-methyl-2-(4-(piperazin-1-yl)phenylamino)pyrimidin-4-yl)-1H-pyrazol-1-yl)propanenitrile] | < 0.1
13 | CCN(CCCO)c1ccc(Nc2ncc(C)c(-c3cnn(C(CC#N)C4CCCC4)c3)n2)cc1 (racemic) [Example 80, 3-cyclopentyl-3-(4-(2-(4-(ethyl(3-hydroxypropyl)amino)phenylamino)-5-methylpyrimidin-4-yl)-1H-pyrazol-1-yl)propanenitrile] | < 0.1
14 | Cc1cnc(Nc2cccc(-c3cnco3)c2)nc1-c1cnn(C(CC#N)C2CCCC2)c1 (racemic) [Example 84, 3-cyclopentyl-3-(4-(5-methyl-2-(3-(oxazol-5-yl)phenylamino)pyrimidin-4-yl)-1H-pyrazol-1-yl)propanenitrile] | < 0.1
15 | Cc1cnc(Nc2ccc(C(=O)N3CCC(O)CC3)cc2)nc1-c1cnn(C(CC#N)C2CCCC2)c1 (racemic) [Example 88, 3-cyclopentyl-3-(4-(2-(4-(4-hydroxypiperidine-1-carbonyl)phenylamino)-5-methylpyrimidin-4-yl)-1H-pyrazol-1-yl)propanenitrile] | < 0.1
16 | Cc1cnc(Nc2ccc(NC(=O)CN3CCCC3)cc2)nc1-c1cnn(C(CC#N)C2CCCC2)c1 (racemic) [Example 91, N-(4-(4-(1-(2-cyano-1-cyclopentylethyl)-1H-pyrazol-4-yl)-5-methylpyrimidin-2-ylamino)phenyl)-2-(pyrrolidin-1-yl)acetamide] | < 0.1
17 | N#CCC(CC1CCNCC1)n1cc(-c2ccnc(Nc3ccc(N4CCOCC4=O)cc3)n2)cn1 (racemic) [Example 92, 3-(4-(2-(4-(3-oxomorpholino)phenylamino)pyrimidin-4-yl)-1H-pyrazol-1-yl)-4-(piperidin-4-yl)butanenitrile] | > 0.1
18 | CS(=O)(=O)N1CCC(CC(CC#N)n2cc(-c3ccnc(Nc4ccc(N5CCOCC5=O)cc4)n3)cn2)CC1 (racemic) [Example 95, 4-(1-(methylsulfonyl)piperidin-4-yl)-3-(4-(2-(4-(3-oxomorpholino)phenylamino)pyrimidin-4-yl)-1H-pyrazol-1-yl)butanenitrile] | < 0.1
19 | CCS(=O)(=O)N1CCC(CC(CC#N)n2cc(-c3ccnc(Nc4ccc(N5CCOCC5=O)cc4)n3)cn2)CC1 (racemic) [Example 96, 4-(1-(ethylsulfonyl)piperidin-4-yl)-3-(4-(2-(4-(3-oxomorpholino)phenylamino)pyrimidin-4-yl)-1H-pyrazol-1-yl)butanenitrile] | < 0.1
20 | N#CCC(CC1CCN(S(=O)(=O)C2CC2)CC1)n1cc(-c2ccnc(Nc3ccc(N4CCOCC4=O)cc3)n2)cn1 (racemic) [Example 97, 4-(1-(cyclopropylsulfonyl)piperidin-4-yl)-3-(4-(2-(4-(3-oxomorpholino)phenylamino)pyrimidin-4-yl)-1H-pyrazol-1-yl)butanenitrile] | < 0.1
21 | N#CCC(C1CCCC1)n1cc(-c2ccnc(Nc3ccc(N4CCOCC4=O)cc3)n2)cn1 (racemic) [Example 98, 3-cyclopentyl-3-(4-(2-(4-(3-oxomorpholino)phenylamino)pyrimidin-4-yl)-1H-pyrazol-1-yl)propanenitrile] | < 0.1
22 | Cc1nccc(-c2cccc(Nc3nccc(-c4cnn(C(CC#N)C5CCCC5)c4)n3)c2)n1 (racemic) [Example 99, 3-cyclopentyl-3-(4-(2-(3-(2-methylpyrimidin-4-yl)phenylamino)pyrimidin-4-yl)-1H-pyrazol-1-yl)propanenitrile] | < 0.1
23 | COc1cnc(Nc2ccc(N3CCOCC3)cc2)nc1-c1cnn(C(CC#N)C2CCCC2)c1 (racemic) [Example 101, 3-cyclopentyl-3-(4-(5-methoxy-2-(4-morpholinophenylamino)pyrimidin-4-yl)-1H-pyrazol-1-yl)propanenitrile] | < 0.1
24 | COc1cnc(Nc2ccc(-n3cccn3)cc2)nc1-c1cnn(C(CC#N)C2CCCC2)c1 (racemic) [Example 102, 3-(4-(2-(4-(1H-pyrazol-1-yl)phenylamino)-5-methoxypyrimidin-4-yl)-1H-pyrazol-1-yl)-3-cyclopentylpropanenitrile] | < 0.1
25 | COc1cnc(Nc2ccc(NC(C)=O)cc2)nc1-c1cnn(C(CC#N)C2CCCC2)c1 (racemic) [Example 103, N-(4-(4-(1-(2-cyano-1-cyclopentylethyl)-1H-pyrazol-4-yl)-5-methoxypyrimidin-2-ylamino)phenyl)acetamide] | < 0.1
26 | COc1cnc(Nc2ccc(C(=O)N(C)C)cc2)nc1-c1cnn(C(CC#N)C2CCCC2)c1 (racemic) [Example 104, 4-(4-(1-(2-cyano-1-cyclopentylethyl)-1H-pyrazol-4-yl)-5-methoxypyrimidin-2-ylamino)-N,N-dimethylbenzamide] | < 0.1
27 | N#CCC(C1CCCC1)n1cc(-c2ccnc(Nc3ccc(N4CCCCC4=O)cc3)n2)cn1 (racemic) [Example 105, 3-cyclopentyl-3-(4-(2-(4-(2-oxopiperidin-1-yl)phenylamino)pyrimidin-4-yl)-1H-pyrazol-1-yl)propanenitrile] | < 0.1
28 | N#CCC(C1CCCC1)n1cc(-c2ccnc(Nc3ccc(N4CCCOC4=O)cc3)n2)cn1 (racemic) [Example 106, 3-cyclopentyl-3-(4-(2-(4-(2-oxo-1,3-oxazinan-3-yl)phenylamino)pyrimidin-4-yl)-1H-pyrazol-1-yl)propanenitrile] | < 0.1
29 | N#CCC(C1CCCC1)n1cc(-c2ccnc(Nc3ccc(N4CCOC4=O)cc3)n2)cn1 (racemic) [Example 107, 3-cyclopentyl-3-(4-(2-(4-(2-oxooxazolidin-3-yl)phenylamino)pyrimidin-4-yl)-1H-pyrazol-1-yl)propanenitrile] | < 0.1
30 | N#CCC(C1CCCC1)n1cc(-c2ccnc(Nc3cccc(N)c3)n2)cn1 (racemic) [Example 108, 3-(4-(2-(3-aminophenylamino)pyrimidin-4-yl)-1H-pyrazol-1-yl)-3-cyclopentylpropanenitrile] | < 0.1
31 | CNC(=O)c1cccc(Nc2nccc(-c3cnn(C(CC#N)C4CCCC4)c3)n2)c1 (racemic) [Example 109, 3-(4-(1-(2-cyano-1-cyclopentylethyl)-1H-pyrazol-4-yl)pyrimidin-2-ylamino)-N-methylbenzamide] | < 0.1
32 | CN(C)C(=O)c1cccc(Nc2nccc(-c3cnn(C(CC#N)C4CCCC4)c3)n2)c1 (racemic) [Example 110, 3-(4-(1-(2-cyano-1-cyclopentylethyl)-1H-pyrazol-4-yl)pyrimidin-2-ylamino)-N,N-dimethylbenzamide] | < 0.1
